In US20140213513A1 (Sanofi, priority 2012, published 2014):
*1 amine or outer side, *2 acyl side, *3 side chain or, on linkers, in order; H or OH if unused. Where a SMILES comes first, the peptide text is derived from it. Side-chain parts run from the residue outwards. [ ]: non-standard residue; d: D form. The star is where a group is joined. γGlu = O=C(O)[C@H](CCC(=O)[*:2])N[*:1]; Stearoyl = CCCCCCCCCCCCCCCCCC(=O)*; Palmitoyl = CCCCCCCCCCCCCCCC(=O)*; Aib = CC(C)(N)C(=O)O

Assays:
Type in all cases: cell-based
Details in all cases: Table 7; cAMP formation
[1] = biological target: T1, human GLP-1 receptor (hGLP-1 R) (Homo sapiens, UniProt P43220); assay: cAMP response of HEK-293 cells stably expressing human GLP-1 receptor (HTRF)
T1 construct: expressed in transfected cells
Procedure, shortened: (§1)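 HEK-293 cells stably expressing the receptor were resuspended at 400000 cells/ml in HBSS/20 mM HEPES/0.1% BSA buffer with 2 mM IBMX. Cells were stimulated with compound for 30 min at room temperature. Intracellular cAMP was measured by HTRF.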

[2] = biological target: T2, human glucagon receptor (hGLUC R) (Homo sapiens, UniProt P47871); assay: cAMP response of HEK-293 cells stably expressing human glucagon receptor (HTRF)
T2 construct: expressed in transfected cells
Procedure, shortened: as §1

[3] = biological target: T3, human GIP receptor (hGIP R) (Homo sapiens, UniProt P48546); assay: cAMP response of HEK-293 cells stably expressing human GIP receptor (HTRF)
T3 construct: expressed in transfected cells
T3 sequence (P48546 22-466): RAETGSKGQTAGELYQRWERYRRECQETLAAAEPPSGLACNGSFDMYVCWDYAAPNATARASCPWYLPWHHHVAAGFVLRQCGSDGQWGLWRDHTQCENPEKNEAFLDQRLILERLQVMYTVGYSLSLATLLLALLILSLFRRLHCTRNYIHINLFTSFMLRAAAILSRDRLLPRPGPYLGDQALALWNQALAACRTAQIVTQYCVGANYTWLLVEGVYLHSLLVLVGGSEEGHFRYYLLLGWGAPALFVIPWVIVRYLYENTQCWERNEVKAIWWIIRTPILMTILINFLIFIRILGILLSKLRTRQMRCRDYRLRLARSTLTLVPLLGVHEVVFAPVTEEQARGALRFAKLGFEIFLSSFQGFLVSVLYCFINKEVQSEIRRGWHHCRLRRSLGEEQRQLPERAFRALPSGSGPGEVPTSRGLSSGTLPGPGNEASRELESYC
Procedure, shortened: as §1

T2 sequence (P47871 26-477): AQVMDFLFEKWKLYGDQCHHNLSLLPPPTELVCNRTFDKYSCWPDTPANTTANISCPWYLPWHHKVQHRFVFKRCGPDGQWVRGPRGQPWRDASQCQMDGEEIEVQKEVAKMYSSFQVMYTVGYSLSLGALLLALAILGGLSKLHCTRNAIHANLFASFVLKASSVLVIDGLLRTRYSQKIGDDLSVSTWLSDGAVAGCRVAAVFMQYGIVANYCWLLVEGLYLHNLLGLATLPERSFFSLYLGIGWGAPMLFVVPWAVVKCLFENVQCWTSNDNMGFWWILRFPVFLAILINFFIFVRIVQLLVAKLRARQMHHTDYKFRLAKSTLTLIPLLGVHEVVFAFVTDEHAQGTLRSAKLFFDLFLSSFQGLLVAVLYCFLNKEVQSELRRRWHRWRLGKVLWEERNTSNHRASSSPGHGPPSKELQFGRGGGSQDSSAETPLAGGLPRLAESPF
T1 sequence (P43220 24-463): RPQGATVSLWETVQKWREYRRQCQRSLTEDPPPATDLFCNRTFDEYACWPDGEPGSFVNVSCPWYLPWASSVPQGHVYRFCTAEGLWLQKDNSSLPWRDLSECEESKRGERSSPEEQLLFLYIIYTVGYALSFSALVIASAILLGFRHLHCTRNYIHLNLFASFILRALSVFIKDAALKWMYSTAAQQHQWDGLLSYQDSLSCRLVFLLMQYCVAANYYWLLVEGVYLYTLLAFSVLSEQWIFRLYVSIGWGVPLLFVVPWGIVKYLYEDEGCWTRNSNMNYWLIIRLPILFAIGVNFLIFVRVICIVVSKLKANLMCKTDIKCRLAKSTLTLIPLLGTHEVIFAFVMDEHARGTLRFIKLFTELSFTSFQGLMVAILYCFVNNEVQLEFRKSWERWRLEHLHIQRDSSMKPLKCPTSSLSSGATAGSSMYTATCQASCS

Structure (SMILES) | EC50 [1] [nM] | EC50 [2] [nM] | EC50 [3] [nM]
CCCCCCCCCCCCCCCCCC(=O)N[C@@H](CCC(=O)NCCCC[C@H](NC(=O)[C@H](CCC(N)=O)NC(=O)[C@@H](NC(=O)[C@H](CO)NC(=O)[C@H](CC(C)C)NC(=O)[C@H](CC(=O)O)NC(=O)[C@H](CO)NC(=O)[C@@H](NC(=O)[C@H](Cc1ccccc1)NC(=O)[C@@H](NC(=O)CNC(=O)[C@H](CCC(N)=O)NC(=O)C(C)(C)NC(=O)[C@@H](N)Cc1ccc(O)cc1)[C@@H](C)O)[C@@H](C)O)[C@@H](C)CC)C(=O)N[C@@H](CC(=O)O)C(=O)N[C@@H](CCC(=O)O)C(=O)N[C@@H](CCC(N)=O)C(=O)N[C@@H](CCCNC(=N)N)C(=O)N[C@@H](C)C(=O)N[C@@H](CCCCN)C(=O)N[C@@H](CCC(=O)O)C(=O)N[C@@H](Cc1ccccc1)C(=O)N[C@H](C(=O)N[C@@H](CCC(=O)O)C(=O)N[C@@H](Cc1c[nH]c2ccccc12)C(=O)N[C@@H](CC(C)C)C(=O)N[C@@H](CCCCN)C(=O)N[C@@H](C)C(=O)NCC(=O)NCC(=O)N1CCC[C@H]1C(=O)N[C@@H](CO)C(=O)N[C@@H](CO)C(=O)NCC(=O)N[C@@H](C)C(=O)N1CCC[C@H]1C(=O)N1CCC[C@H]1C(=O)N1CCC[C@H]1C(=O)N[C@@H](CO)C(N)=O)[C@@H](C)CC)C(=O)O [SEQ ID NO: 31, Y-Aib-Q-G-T-F-T-S-D-L-S-I-Q-K(yE-x70)-DEQRAKEFIEWLKAGGPSSGAPPPS-NH2] | 0.0148 | 0.0041 | 0.0131
CCCCCCCCCCCCCCCCCC(=O)N[C@@H](CCC(=O)NCCCC[C@H](NC(=O)[C@H](CCC(N)=O)NC(=O)[C@@H](NC(=O)[C@H](CO)NC(=O)[C@H](CC(C)C)NC(=O)[C@H](CC(=O)O)NC(=O)[C@H](CO)NC(=O)[C@@H](NC(=O)[C@H](Cc1ccccc1)NC(=O)[C@@H](NC(=O)CNC(=O)[C@H](CCC(=O)O)NC(=O)C(C)(C)NC(=O)[C@@H](N)Cc1ccc(O)cc1)[C@@H](C)O)[C@@H](C)O)[C@@H](C)CC)C(=O)N[C@@H](CCC(=O)O)C(=O)N[C@@H](CO)C(=O)N[C@@H](CCCCN)C(=O)N[C@@H](C)C(=O)N[C@@H](C)C(=O)N[C@@H](Cc1c[nH]cn1)C(=O)N[C@@H](CCC(=O)O)C(=O)N[C@@H](Cc1ccccc1)C(=O)N[C@H](C(=O)N[C@@H](CCC(=O)O)C(=O)N[C@@H](Cc1c[nH]c2ccccc12)C(=O)N[C@@H](CC(C)C)C(=O)N[C@@H](CCCCN)C(=O)N[C@@H](C)C(=O)NCC(=O)NCC(=O)N1CCC[C@H]1C(=O)N[C@@H](CO)C(=O)N[C@@H](CO)C(=O)NCC(=O)N[C@@H](C)C(=O)N1CCC[C@H]1C(=O)N1CCC[C@H]1C(=O)N1CCC[C@H]1C(=O)N[C@@H](CO)C(=O)N[C@@H](CCCCN)C(N)=O)[C@@H](C)CC)C(=O)O [SEQ ID NO: 58, Y-Aib-E-G-T-F-T-S-D-L-S-I-Q-K(yE-x70)-ESKAAHEFIEWLKAGGPSSGAPPPSK-NH2] (H-Y[Aib]EGTFTSDLSIQK([γGlu-Stearoyl])ESKAAHEFIEWLKAGGPSSGAPPPSK-NH2) | 0.0125 | 16 | 0.0086
CCCCCCCCCCCCCCCCCC(=O)N[C@@H](CCC(=O)NCCCC[C@H](NC(=O)[C@H](CCC(N)=O)NC(=O)[C@@H](NC(=O)[C@H](CO)NC(=O)[C@H](CC(C)C)NC(=O)[C@H](CC(=O)O)NC(=O)[C@H](CO)NC(=O)[C@@H](NC(=O)[C@H](Cc1ccccc1)NC(=O)[C@@H](NC(=O)CNC(=O)[C@H](CCC(=O)O)NC(=O)C(C)(C)NC(=O)[C@@H](N)Cc1ccc(O)cc1)[C@@H](C)O)[C@@H](C)O)[C@@H](C)CC)C(=O)N[C@@H](CCC(=O)O)C(=O)N[C@@H](CCC(=O)O)C(=O)N[C@@H](CCC(=O)O)C(=O)N[C@@H](C)C(=O)N[C@H](C(=O)N[C@@H](CCCCN)C(=O)N[C@@H](CC(C)C)C(=O)N[C@@H](Cc1ccccc1)C(=O)N[C@H](C(=O)N[C@@H](CCC(=O)O)C(=O)N[C@@H](Cc1c[nH]c2ccccc12)C(=O)N[C@@H](CC(C)C)C(=O)N[C@@H](CCCCN)C(=O)N[C@@H](C)C(=O)NCC(=O)NCC(=O)N1CCC[C@H]1C(=O)N[C@@H](CO)C(=O)N[C@@H](CO)C(=O)NCC(=O)N[C@@H](C)C(=O)N1CCC[C@H]1C(=O)N1CCC[C@H]1C(=O)N1CCC[C@H]1C(=O)N[C@@H](CO)C(N)=O)[C@@H](C)CC)C(C)C)C(=O)O [SEQ ID NO: 62, Y-Aib-E-G-T-F-T-S-D-L-S-I-Q-K(yE-x70)-EEEAVKLFIEWLKAGGPSSGAPPPS-NH2] (H-Y[Aib]EGTFTSDLSIQK([γGlu-Stearoyl])EEEAVKLFIEWLKAGGPSSGAPPPS-NH2) | 0.0076 | > 1000 | 0.0067
CCCCCCCCCCCCCCCC(=O)N[C@@H](CCC(=O)NCCCC[C@H](NC(=O)[C@H](CCC(N)=O)NC(=O)[C@H](CCCCN)NC(=O)[C@H](CO)NC(=O)[C@H](CC(C)C)NC(=O)[C@H](CC(=O)O)NC(=O)[C@H](CO)NC(=O)[C@@H](NC(=O)[C@H](Cc1ccccc1)NC(=O)[C@@H](NC(=O)CNC(=O)[C@H](CCC(N)=O)NC(=O)C(C)(C)NC(=O)[C@@H](N)Cc1ccc(O)cc1)[C@@H](C)O)[C@@H](C)O)C(=O)N[C@@H](CC(=O)O)C(=O)N[C@@H](CO)C(=O)N[C@@H](CCCCN)C(=O)N[C@@H](C)C(=O)N[C@@H](C)C(=O)N[C@@H](CCC(N)=O)C(=O)N[C@@H](CC(=O)O)C(=O)N[C@@H](Cc1ccccc1)C(=O)N[C@H](C(=O)N[C@@H](CCC(=O)O)C(=O)N[C@@H](Cc1c[nH]c2ccccc12)C(=O)N[C@@H](CC(C)C)C(=O)N[C@@H](CCCCN)C(=O)N[C@@H](C)C(=O)NCC(=O)NCC(=O)N1CCC[C@H]1C(=O)N[C@@H](CO)C(=O)N[C@@H](CO)C(=O)NCC(=O)N[C@@H](C)C(=O)N1CCC[C@H]1C(=O)N1CCC[C@H]1C(=O)N1CCC[C@H]1C(=O)N[C@@H](CO)C(N)=O)[C@@H](C)CC)C(=O)O [SEQ ID NO: 61, Y-Aib-Q-G-T-F-T-S-D-L-S-K-Q-K(yE-x53)-DSKAAQDFIEWLKAGGPSSGAPPPS-NH2] (H-Y[Aib]QGTFTSDLSKQK([γGlu-Palmitoyl])DSKAAQDFIEWLKAGGPSSGAPPPS-NH2) | 0.0024 | 0.0061 | 0.0214
CCCCCCCCCCCCCCCC(=O)N[C@@H](CCC(=O)NCCCC[C@H](NC(=O)[C@H](CCC(N)=O)NC(=O)[C@@H](NC(=O)[C@H](CO)NC(=O)[C@H](CC(C)C)NC(=O)[C@H](CC(=O)O)NC(=O)[C@H](CO)NC(=O)[C@@H](NC(=O)[C@H](Cc1ccccc1)NC(=O)[C@@H](NC(=O)CNC(=O)[C@H](CCC(N)=O)NC(=O)C(C)(C)NC(=O)[C@@H](N)Cc1ccc(O)cc1)[C@@H](C)O)[C@@H](C)O)[C@@H](C)CC)C(=O)N[C@@H](CC(=O)O)C(=O)N[C@@H](CCCCN)C(=O)N[C@@H](CCCNC(=N)N)C(=O)N[C@@H](C)C(=O)N[C@@H](C)C(=O)NC(C)(C)C(=O)N[C@@H](CC(C)C)C(=O)N[C@@H](Cc1ccccc1)C(=O)N[C@H](C(=O)N[C@@H](CCC(=O)O)C(=O)N[C@@H](Cc1c[nH]c2ccccc12)C(=O)N[C@@H](CC(C)C)C(=O)N[C@@H](CCCCN)C(=O)N[C@@H](C)C(=O)NCC(=O)NCC(=O)N1CCC[C@H]1C(=O)N[C@@H](CO)C(=O)N[C@@H](CO)C(=O)NCC(=O)N[C@@H](C)C(=O)N1CCC[C@H]1C(=O)N1CCC[C@H]1C(=O)N1CCC[C@H]1C(=O)N[C@@H](CO)C(N)=O)[C@@H](C)CC)C(=O)O [SEQ ID NO: 27, Y-Aib-Q-G-T-F-T-S-D-L-S-I-Q-K(yE-x53)-D-K-R-A-A-Aib-L-F-I-E-W-L-K-A-G-G-P-S-S-G-A-P-P-P-S-NH2] (H-Y[Aib]QGTFTSDLSIQK([γGlu-Palmitoyl])DKRAA[Aib]LFIEWLKAGGPSSGAPPPS-NH2) | 0.0147 | 0.0389 | 0.0826
